Values quoted from earlier work in PMC11676667, “Pharmacokinetics of Oral Cannabinoid Δ8-Tetrahydrocannabivarin and Its Main Metabolites in Healthy Participants” (Pharmaceuticals, 2024).
Like-named read-outs stand apart in the source and are kept apart here.

Columns and labels:
[1] = oral MCT oil formulation, healthy participants; cited from earlier work
CB1 receptor = conditions: in vitro, cited from earlier work
[2] = oral cannabis brownie; cited from earlier work

Question: Which safety and tolerability [1] does the source give for CCCc1cc(O)c2c(c1)OC(C)(C)[C@@H]1CC=C(C)C[C@@H]21 [Δ8-THCV, Δ8-tetrahydrocannabivarin] here?
Answer: Its safety and tolerability is “safe and well tolerated”.

Question: What does the source list for CCCc1cc(O)c2c(c1)OC(C)(C)[C@@H]1CCC(C)=C[C@@H]21 [Δ9-THCV, Δ9-tetrahydrocannabivarin]?
Answer: CB1 receptor antagonist potency relative to Δ8-THCV (CB1 receptor; at low doses): approximately two times more potent; CB1 receptor antagonist potency relative to Δ8-THCV (CB1 receptor): two-fold more potent

Question: Which Tmax [2] does the source give for CCCc1cc(O)c2c(c1)OC(C)(C)[C@@H]1CCC(C(=O)O)=C[C@@H]21 [Δ9-THCV-COOH, 11-nor-9-carboxy-Δ9-THCV] here?
Answer: The Tmax was 3 h.
